From ChEMBL document CHEMBL4138123, “Design, synthesis and biological evaluation of novel pyrazolochalcones as potential modulators of PI3K/Akt/mTOR pathway and inducers of apoptosis in breast cancer cells” (Eur J Med Chem, 2017)

Experiments:
Format in all cases: functional
MCF7 = assay: Cytotoxicity against human MCF7 cells assessed as growth inhibition after 48 hrs by sulforhodamine B assay; conditions: MCF7, 48 h
DU-145 [1] = assay: Cytotoxicity against human DU145 cells assessed as cell growth at 100 uM after 48 hrs by sulforhodamine B assay relative to control; conditions: DU-145, 48 h, read-out: Activity
SK-MEL-28 = assay: Cytotoxicity against human SK-MEL-28 cells assessed as cell growth at 100 uM after 48 hrs by sulforhodamine B assay relative to control; conditions: SK-MEL-28, 48 h, read-out: Activity
HOP-62 [2] = assay: Cytotoxicity against human HOP62 cells assessed as cell growth at 100 uM after 48 hrs by sulforhodamine B assay relative to control; conditions: HOP-62, 48 h, read-out: Activity
KM12 = assay: Cytotoxicity against human KM12 cells assessed as cell growth at 0.1 uM after 48 hrs by sulforhodamine B assay relative to control; conditions: KM12, 48 h, read-out: Activity
MDA-MB-231 = assay: Cytotoxicity against human MDA-MB-231 cells assessed as cell growth at 10 uM after 48 hrs by sulforhodamine B assay relative to control; conditions: MDA-MB-231, 48 h, read-out: Activity
HCT-15 = assay: Cytotoxicity against human HCT15 cells assessed as cell growth at 10 uM after 48 hrs by sulforhodamine B assay relative to control; conditions: HCT-15, 48 h, read-out: Activity
SK-OV-3 = assay: Cytotoxicity against human SKOV3 cells assessed as growth inhibition after 48 hrs by sulforhodamine B assay; conditions: SK-OV-3, 48 h
SN12C = assay: Cytotoxicity against human SN12C cells assessed as cell growth at 0.01 uM after 48 hrs by sulforhodamine B assay relative to control; conditions: read-out: Activity
HCT-116 = assay: Cytotoxicity against human HCT116 cells assessed as cell growth at 1 uM after 48 hrs by sulforhodamine B assay relative to control; conditions: HCT-116, 48 h, read-out: Activity
DU-145 [3] = assay: Cytotoxicity against human DU145 cells assessed as cell growth at 0.1 uM after 48 hrs by sulforhodamine B assay relative to control; conditions: DU-145, 48 h, read-out: Activity
HOP-62 [4] = assay: Cytotoxicity against human HOP62 cells assessed as cell growth at 0.01 uM after 48 hrs by sulforhodamine B assay relative to control; conditions: HOP-62, 48 h, read-out: Activity
NCI/ADR-RES = assay: Cytotoxicity against human NCI/ADR-RES cells assessed as cell growth at 0.1 uM after 48 hrs by sulforhodamine B assay relative to control; conditions: read-out: Activity
SF-539 [5] = assay: Cytotoxicity against human SF539 cells assessed as cell growth at 10 uM after 48 hrs by sulforhodamine B assay relative to control; conditions: SF-539, 48 h, read-out: Activity
OVCAR-5 = assay: Cytotoxicity against human OVCAR5 cells assessed as growth inhibition after 48 hrs by sulforhodamine B assay; conditions: OVCAR-5, 48 h
HL-60(TB) [6] = assay: Cytotoxicity against human HL-60(TB) cells assessed as cell growth at 100 uM after 48 hrs by sulforhodamine B assay relative to control; conditions: HL-60, 48 h, read-out: Activity
HL-60(TB) [7] = assay: Cytotoxicity against human HL-60(TB) cells assessed as cell growth at 1 uM after 48 hrs by sulforhodamine B assay relative to control; conditions: HL-60, 48 h, read-out: Activity
OVCAR-4 = assay: Cytotoxicity against human OVCAR4 cells assessed as cell growth at 0.1 uM after 48 hrs by sulforhodamine B assay relative to control; conditions: OVCAR-4, 48 h, read-out: Activity
NCI-H522 = assay: Cytotoxicity against human NCI-H522 cells assessed as cell growth at 0.1 uM after 48 hrs by sulforhodamine B assay relative to control; conditions: NCI-H522, 48 h, read-out: Activity
MOLT-4 = assay: Cytotoxicity against human MOLT4 cells assessed as growth inhibition after 48 hrs by sulforhodamine B assay; conditions: MOLT-4, 48 h; for CC50: read-out: LC50 (the source's name)
NCI-H460 [8] = assay: Cytotoxicity against human NCI-H460 cells assessed as cell growth at 10 uM after 48 hrs by sulforhodamine B assay relative to control; conditions: NCI-H460, 48 h, read-out: Activity
HCC 2998 [9] = assay: Cytotoxicity against human HCC2998 cells assessed as cell growth at 1 uM after 48 hrs by sulforhodamine B assay relative to control; conditions: HCC 2998, 48 h, read-out: Activity
NCI-H23 = assay: Cytotoxicity against human NCI-H23 cells assessed as cell growth at 0.01 uM after 48 hrs by sulforhodamine B assay relative to control; conditions: NCI-H23, 48 h, read-out: Activity
A498 = assay: Cytotoxicity against human A498 cells assessed as growth inhibition after 48 hrs by sulforhodamine B assay; conditions: A498, 48 h
CCRF-CEM = assay: Cytotoxicity against human CCRF-CEM cells assessed as cell growth at 0.1 uM after 48 hrs by sulforhodamine B assay relative to control; conditions: read-out: Activity
NCI-H460 [10] = assay: Cytotoxicity against human NCI-H460 cells assessed as cell growth at 100 uM after 48 hrs by sulforhodamine B assay relative to control; conditions: NCI-H460, 48 h, read-out: Activity
HT-29 = assay: Cytotoxicity against human HT-29 cells assessed as growth inhibition after 48 hrs by sulforhodamine B assay; conditions: HT-29, 48 h
HCC 2998 [11] = assay: Cytotoxicity against human HCC2998 cells assessed as cell growth at 10 uM after 48 hrs by sulforhodamine B assay relative to control; conditions: HCC 2998, 48 h, read-out: Activity
NCI-H226 = assay: Cytotoxicity against human NCI-H226 cells assessed as growth inhibition after 48 hrs by sulforhodamine B assay; conditions: NCI-H226, 48 h
BT-549 = assay: Cytotoxicity against human BT549 cells assessed as cell growth at 1 uM after 48 hrs by sulforhodamine B assay relative to control; conditions: BT-549, 48 h, read-out: Activity
ACHN [12] = assay: Cytotoxicity against human ACHN cells assessed as cell growth at 100 uM after 48 hrs by sulforhodamine B assay relative to control; conditions: read-out: Activity
SF-539 [13] = assay: Cytotoxicity against human SF539 cells assessed as cell growth at 0.01 uM after 48 hrs by sulforhodamine B assay relative to control; conditions: SF-539, 48 h, read-out: Activity
HOP-62 [14] = assay: Cytotoxicity against human HOP62 cells assessed as growth inhibition after 48 hrs by sulforhodamine B assay; conditions: HOP-62, 48 h
ACHN [15] = assay: Cytotoxicity against human ACHN cells assessed as cell growth at 10 uM after 48 hrs by sulforhodamine B assay relative to control; conditions: read-out: Activity
IGROV-1 = assay: Cytotoxicity against human IGROV1 cells assessed as cell growth at 0.01 uM after 48 hrs by sulforhodamine B assay relative to control; conditions: IGROV-1, 48 h, read-out: Activity
DU-145 [16] = assay: Cytotoxicity against human DU145 cells assessed as cell growth at 1 uM after 48 hrs by sulforhodamine B assay relative to control; conditions: DU-145, 48 h, read-out: Activity

## COc1ccc(C(=O)/C=C/c2cc(-c3ccc(OC)c(OC)c3)n[nH]2)cc1OC
MCF7
  GI50: 0.937 µM
  TGI: 8.02 µM
DU-145 [1]
  growth at 100 µM: -100%
SK-MEL-28
  growth at 100 µM: -32%
HOP-62 [2]
  growth at 100 µM: -13%
KM12
  growth at 0.1 µM: 100%
MDA-MB-231
  growth at 10 µM: -18%
HCT-15
  growth at 10 µM: -19%
SK-OV-3
  GI50: 3.13 µM
  TGI: 33.3 µM
SN12C
  growth at 0.01 µM: 101%
HCT-116
  growth at 1 µM: 21%
DU-145 [3]
  growth at 0.1 µM: 105%
HOP-62 [4]
  growth at 0.01 µM: 83%
NCI/ADR-RES
  growth at 0.1 µM: 102%
SF-539 [5]
  growth at 10 µM: -51%
OVCAR-5
  GI50: 1.76 µM
  TGI: 5.24 µM
HL-60(TB) [6]
  growth at 100 µM: 1%
HL-60(TB) [7]
  growth at 1 µM: 86%
OVCAR-4
  growth at 0.1 µM: 86%
NCI-H522
  growth at 0.1 µM: 94%
MOLT-4
  GI50: 2.2 µM
  TGI: > 100 µM
  CC50: > 100 µM
NCI-H460 [8]
  growth at 10 µM: -20%
HCC 2998 [9]
  growth at 1 µM: 95%
NCI-H23
  growth at 0.01 µM: 101%
A498
  GI50: 1.27 µM
  TGI: 3.2 µM
CCRF-CEM
  growth at 0.1 µM: 94%
NCI-H460 [10]
  growth at 100 µM: -42%
HT-29
  GI50: 1.38 µM
  TGI: 4.95 µM
HCC 2998 [11]
  growth at 10 µM: -94%
NCI-H226
  GI50: 1.66 µM
  TGI: 4.23 µM
BT-549
  growth at 1 µM: 75%
ACHN [12]
  growth at 100 µM: -60%
SF-539 [13]
  growth at 0.01 µM: 89%
HOP-62 [14]
  GI50: 1.73 µM
  TGI: 5.6 µM
ACHN [15]
  growth at 10 µM: -54%
IGROV-1
  growth at 0.01 µM: 104%
DU-145 [16]
  growth at 1 µM: 73%

## COc1ccc(C(=O)/C=C/c2cc(-c3cc(OC)c(OC)c(OC)c3)n[nH]2)cc1OC
MCF7
  LC50: 5.72 µM
  TGI: 1.95 µM
DU-145 [1]
  growth at 100 µM: -89%
SK-MEL-28
  growth at 100 µM: -90%
HOP-62 [2]
  growth at 100 µM: -98%
KM12
  growth at 0.1 µM: 92%
MDA-MB-231
  growth at 10 µM: -82%
HCT-15
  growth at 10 µM: -78%
SK-OV-3
  LC50: 27.6 µM
  TGI: 7.82 µM
SN12C
  growth at 0.01 µM: 99%
HCT-116
  growth at 1 µM: 47%
DU-145 [3]
  growth at 0.1 µM: 101%
HOP-62 [4]
  growth at 0.01 µM: 101%
NCI/ADR-RES
  growth at 0.1 µM: 95%
SF-539 [5]
  growth at 10 µM: -94%
OVCAR-5
  LC50: 5.75 µM
  TGI: 3.03 µM
HL-60(TB) [6]
  growth at 100 µM: -51%
HL-60(TB) [7]
  growth at 1 µM: 67%
OVCAR-4
  growth at 0.1 µM: 96%
NCI-H522
  growth at 0.1 µM: 91%
MOLT-4
  TGI: 5.56 µM
  CC50: > 100 µM
NCI-H460 [8]
  growth at 10 µM: -64%
HCC 2998 [9]
  growth at 1 µM: 116%
NCI-H23
  growth at 0.01 µM: 93%
A498
  LC50: 6 µM
  TGI: 2.98 µM
CCRF-CEM
  growth at 0.1 µM: 94%
NCI-H460 [10]
  growth at 100 µM: -65%
HT-29
  LC50: 5.75 µM
  TGI: 3.05 µM
HCC 2998 [11]
  growth at 10 µM: -85%
NCI-H226
  TGI: 3.32 µM
BT-549
  growth at 1 µM: 76%
ACHN [12]
  growth at 100 µM: -91%
SF-539 [13]
  growth at 0.01 µM: 97%
HOP-62 [14]
  LC50: 5.35 µM
  TGI: 2.77 µM
ACHN [15]
  growth at 10 µM: -95%
IGROV-1
  growth at 0.01 µM: 98%
DU-145 [16]
  growth at 1 µM: 32%
